# Measurements taken from patent publication US9708336B2, “Metallo-beta-lactamase inhibitors” (priority 2014, dated 2017).
# Like-named read-outs stand apart in the source and are kept apart here.
# How the values were obtained:
# NDM-1 = NDM-1 (Klebsiella pneumoniae, UniProt C7C422); assay: biochemical; assay type: biochemical; details: fluorescence assay with CCF2-FA substrate; read-out: NDM-1 IC50
# [1] = tested on: Klebsiella pneumoniae expressing VIM-1 (IHMA599644); assay: Antibiotic potentiation activity: synergistic concentration (MITC95) with imipenem, OD600 growth; assay type: cell-based; details: concentration giving 95% inhibition of bacterial growth
# Method in brief: (§1)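 Spectrophotometric growth readings were taken following 22–24 h at 35 °C. Before that, organisms in 1.1× CAMHB were mixed with imipenem, used at 4 μg/ml in assay, and test compound.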
# [2] = tested on: Serratia marcescens expressing IMP-1 (CL5741); assay: as above; assay type: cell-based; details: concentration giving 95% inhibition of bacterial growth
# Method in brief: as §1
# [3] = tested on: Escherichia coli expressing NDM-1 (CLB30005); assay: as above; assay type: cell-based; details: concentration giving 95% inhibition of bacterial growth
# Method in brief: as §1
# IMP-1 = IMP-1 (Serratia marcescens, UniProt P52699); assay: biochemical; assay type: biochemical; details: fluorescence assay with CCF2-FA substrate; read-out: IMP-1 IC50
# VIM-1 = VIM-1 (Pseudomonas aeruginosa (strain ATCC 15692 / DSM 22644 / CIP 104116 / JCM 14847 / LMG 12228 / 1C / PRS 101 / PAO1), UniProt A0A0F7KYQ8); assay: Enzyme activity: determination of IC50, fluorescence assay with CCF2-FA substrate (VIM-1); assay type: biochemical
# [4] = fluorescence assay with CCF2-FA substrate, read-out: VIM-1 IC50
# Chain of IMP-1 (P52699 whole entry, looked up): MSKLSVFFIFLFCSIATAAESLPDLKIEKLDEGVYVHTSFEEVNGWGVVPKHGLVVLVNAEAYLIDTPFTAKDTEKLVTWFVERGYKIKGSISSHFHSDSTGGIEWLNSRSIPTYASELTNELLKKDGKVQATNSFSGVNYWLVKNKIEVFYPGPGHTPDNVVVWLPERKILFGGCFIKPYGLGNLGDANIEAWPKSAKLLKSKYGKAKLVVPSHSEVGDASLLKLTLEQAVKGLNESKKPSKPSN
# Chain of NDM-1 (C7C422 whole entry, looked up, species assumed): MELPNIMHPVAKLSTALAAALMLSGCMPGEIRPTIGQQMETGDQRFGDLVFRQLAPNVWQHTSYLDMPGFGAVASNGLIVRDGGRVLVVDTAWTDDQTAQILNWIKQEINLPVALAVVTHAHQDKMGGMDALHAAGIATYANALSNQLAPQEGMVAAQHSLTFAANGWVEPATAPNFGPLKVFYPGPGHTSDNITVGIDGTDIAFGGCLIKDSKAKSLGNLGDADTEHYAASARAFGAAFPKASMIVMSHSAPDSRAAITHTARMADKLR
SMILES,IC50 (NDM-1) [nM],Klebsiella pneumoniae expressing VIM-1 (IHMA 599644) MITC95 [1] [µM],Serratia marcescens expressing IMP-1 (CL5741) MITC95 [2] [µM],Escherichia coli expressing NDM-1 (CLB 30005) MITC95 [3] [µM],IC50 (IMP-1) [nM],IC50 (VIM-1; [4]) [nM],"IC50 (VIM-1; VIM-1 IC50, fluorescence assay with CCF2-FA substrate) [nM]"
"NS(=O)(=O)c1cccc(-c2cscn2)c1-c1nn[nH]n1 [Example 45, 2-(2H-tetrazol-5-yl)-3-(1,3-thiazol-4-yl)benzenesulfonamide]",85,50,25,0.7813,1210,496,–
"NS(=O)(=O)c1cccc(-c2ccnc(F)c2)c1-c1nn[nH]n1 [Example 46, 3-(2-fluoropyridin-4-yl)-2-(2H-tetrazol-5-yl)benzenesulfonamide]",14.5,28.13,25,0.5859,302,99.1,–
"NS(=O)(=O)c1cccc(-c2ccnnc2)c1-c1nn[nH]n1 [Example 47, 3-pyridazin-4-yl-2-(2H-tetrazol-5-yl)benzenesulfonamide]",345,>200,50,0.7813,4160,5360,–
"NS(=O)(=O)c1cccc(-c2ccc(F)nc2)c1-c1nn[nH]n1 [Example 48, 3-(6-fluoropyridin-3-yl)-2-(2H-tetrazol-5-yl)benzenesulfonamide]",19.1,66.67,33.33,0.3906,644,182,–
"Cn1nccc1-c1cccc(S(N)(=O)=O)c1-c1nn[nH]n1 [Example 49, 3-(1-methyl-1H-pyrazol-5-yl)-2-(2H-tetrazol-5-yl)benzenesulfonamide]",21.6,12.5,150,0.5859,4050,61.7,–
"NS(=O)(=O)c1cccc(-c2ccc(-c3ccn[nH]3)cc2)c1-c1nn[nH]n1 [Example 50, 4′-(1H-pyrazol-5-yl)-2-(2H-tetrazol-5-yl)biphenyl-3-sulfonamide]",2.71,200,12.5,2.344,37.9,89.1,–
"COC1CCN(C(=O)c2ccc(-c3cccc(S(N)(=O)=O)c3-c3nn[nH]n3)cc2)CC1 [Example 51, 4′-[(4-methoxypiperidin-1-yl)carbonyl]-2-(2H-tetrazol-5-yl)biphenyl-3-sulfonamide]",2.74,>200,31.25,9.375,27.4,4190,–
"NS(=O)(=O)c1cccc(-c2ccc(C(=O)N3CCC(O)CC3)cc2)c1-c1nn[nH]n1 [Example 52, 4′-[(4-hydroxypiperidin-1-yl)carbonyl]-2-(2H-tetrazol-5-yl)biphenyl-3-sulfonamide]",1.71,100,6.25,1.563,17.9,96.6,–
"NS(=O)(=O)c1cccc(-c2ccc3c(c2)C(=O)NC3)c1-c1nn[nH]n1 [Example 53, 3-(3-oxo-2,3-dihydro-1H-isoindol-5-yl)-2-(2H-tetrazol-5-yl)benzenesulfonamide]",4.41,37.5,6.25,0.5859,73.3,37,–
"CS(=O)(=O)CCn1cc(-c2cccc(S(N)(=O)=O)c2-c2nn[nH]n2)cn1 [Example 54, 3-{1-[2-(methylsulfonyl)ethyl]-1H-pyrazol-4-yl}-2-(2H-tetrazol-5-yl)benzenesulfonamide]",42.3,>200,18.75,2.344,205,937,–
"CN(c1ncc(-c2cccc(S(N)(=O)=O)c2-c2nn[nH]n2)cn1)S(C)(=O)=O [Example 55, 3-{2-[methyl(methylsulfonyl)amino]pyrimidin-5-yl}-2-(2H-tetrazol-5-yl)benzenesulfonamide]",3.48,200,12.5,1.953,52.7,144,–
"NS(=O)(=O)c1cccc(-c2ccc3c(c2)OCCO3)c1-c1nn[nH]n1 [Example 56, 3-(2,3-dihydro-1,4-benzodioxin-6-yl)-2-(2H-tetrazol-5-yl)benzenesulfonamide]",1.83,200,14.06,2.344,13.2,44,–
"CNS(=O)(=O)c1ccc(-c2cccc(S(N)(=O)=O)c2-c2nn[nH]n2)cc1 [Example 57, N~4~-′-methyl-2-(2H-tetrazol-5-yl)biphenyl-3,4′-disulfonamide]",4.19,25,4.688,1.563,28.9,29.7,–
"CS(=O)(=O)c1ccc(-c2cccc(S(N)(=O)=O)c2-c2nn[nH]n2)cn1 [Example 58, 3-[6-(methylsulfonyl)pyridin-3-yl]-2-(2H-tetrazol-5-yl)benzenesulfonamide]",14.5,100,12.5,0.5859,227,190,–
"CN(C)S(=O)(=O)c1ccc(-c2cccc(S(N)(=O)=O)c2-c2nn[nH]n2)cc1 [Example 59, N~4~′,N~4~′-dimethyl-2-(2H-tetrazol-5-yl)biphenyl-3,4′-disulfonamide]",4.38,200,6.25,2.344,36.1,95,–
"NS(=O)(=O)c1cccc(-c2ccc(S(=O)(=O)NC3CC3)cc2)c1-c1nn[nH]n1 [Example 60, N~4~′-cyclopropyl-2-(2H-tetrazol-5-yl)biphenyl-3,4′-disulfonamide]",3.17,75,4.688,3.906,16.5,27.8,–
"NS(=O)(=O)c1ccc(-c2cccc(S(N)(=O)=O)c2-c2nn[nH]n2)cc1 [Example 61, 2-(2H-tetrazol-5-yl)biphenyl-3,4′-disulfonamide]",6.34,25,6.25,0.5859,58,–,62
"NS(=O)(=O)c1cccc(C2=CCSCC2)c1-c1nn[nH]n1 [Example 62, 3-(3,6-dihydro-2H-thiopyran-4-yl)-2-(2H-tetrazol-5-yl)benzenesulfonamide]",8.47,100,100,1.563,211,186,–
